Test results reported in publication PMC9605374 (Marine Drugs, 2022).

What was measured:
Assay type in all cases: cell-based, human
[1] = tested on: caspase-3 in PC3-DR cells; test: Western blotting, caspase-3 cleavage; details: 48 h
Procedure: (§1) Number of replicates n = 3. […] Viability was measured using an MTT assay. Number of replicates n = 3.
(§2) It is important to note that a reduction in p-gp activity could be conditioned by p-gp degradation or cell death-related processes. Consequently, using a Western blotting analysis, we measured p-gp expressional levels in the treated PC3-DR cells. […] Thus, the observed effect on p-gp activity seems to be exclusively related to the interaction of NB with p-gp rather than result from any cell death-related events.
(§3) The Western blot assay was executed as previously described: 1 × 10^6 cells were seeded in Petri dishes (ø 6 cm, 5 mL/dish) and incubated overnight. On the next day, the cells were treated with the compounds in fresh culture media (5 mL/dish) for the indicated time. Next, cells were harvested with a cell scraper and lysed in lysis buffer including protease and phosphatase inhibitors cocktail (Roche, Mannheim, Germany). Cell debris were removed from the protein lysates via centrifugation. Afterwards, the cell-free protein mixtures were separated in gradient ready-made Mini-PROTEAN® TGX Stain-Free^TM gels (Bio-Rad, Hercules, CA, USA) using SDS-PAGE (sodium dodecylsulfate polyacrylamide gel electrophoresis). Then, the proteins were blotted onto ø 0.2 µm pore PVDF membrane. […] The signals were detected using the ECL chemiluminescence system (Thermo Scientific, Rockford, IL, USA).

[2] = tested on: serine-/threonine kinases (JNK1/2, p38) in 22Rv1 cells; test: Kinome profiling of serine/threonine kinases (PamGene), upstream kinase analysis; details: 22Rv1, 1 µM and 10 µM, 2 h
Description: To further investigate the mechanism of anticancer action of NB, we examined the effects of the compound on serine-/threonine protein kinases. Protein kinases modify target molecules (proteins) via phosphorylation, thus, altering their activity. A subgroup of these kinases—serine-/threonine kinases (STK)—play a key role in various essential processes related to cell death and cell survival. Consequently, protein kinases, in general, are important target molecules for various anticancer drugs. Specifically, modification of STKs’ activity has been exploited as a mechanism of action. Several clinically approved drugs, such as sunitinib, palbociclib, cobimetinib, and axitinib, utilize this mechanism to execute their therapeutic action. Thus, we performed functional kinomics using the microarray-based PamGene technology. This method allows a systematic examination of the changes in STK activity (http://www.pamgene.de, accessed on 22 January 2022, Figure 5A–D). We used two different concentrations, specifically, 1 µM and 10 µM, in order to cover different biological effects, which may take place at the different drug doses (Figure 5A). […]
Figure 5 Kinome profiling of serine/threonine kinases (STKs). 22Rv1 cells were incubated with NB for 2 h; the proteins were extracted and STK were analyzed using functional kinome profiling. […]

p-gp in PC3-DR cells = test: Western blotting, p-gp expression; details: 48 h, up to 6 µM
Procedure: as §1, §2, §3

SMILES: COc1ccc(C2SSC34CC5(O)C(Cl)C=CC(O)C5ON3C(=O)C2N(C)C4=O)c(O)c1OC (stereo not drawn) [NB, N-methylpretrichodermamide B]
- concentration at which cleavage of caspase-3 was detected [1]: 6 µM
- upstream kinase analysis, JNK1/2 and p38 kinases [2]: very likely upregulated
- p-gp expression (p-gp in PC3-DR cells): no significant changes in p-gp expression
